In ChEMBL document CHEMBL1201862, “PubChem BioAssay data set” (2004):
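Each compound was tested at five concentrations against cells in 96-well plates for 48 hours. GI50 = concentration required for 50% inhibition of growth.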 The source made the active and inactive calls. Rule as the data show it: active = GI50 up to about 1.1 µM and inactive = higher.

Key:
Experiment in all cases: growth of human tumour cells (NCI), 48 h
SK-OV-3 = tested on: SK-OV-3
SN12C = tested on: SN12C
HL-60 = tested on: HL-60
RPMI-8226 = tested on: RPMI-8226
OVCAR-8 = tested on: OVCAR-8
HCC 2998 = tested on: HCC 2998
A498 = tested on: A498
UO-31 = tested on: UO-31
RXF 393 = tested on: RXF 393
HCT-116 = tested on: HCT-116
HOP-92 = tested on: HOP-92
K562 = tested on: K562
DU-145 = tested on: DU-145
MOLT-4 = tested on: MOLT-4
MCF7 = tested on: MCF7
SW-620 = tested on: SW-620
SNB-19 = tested on: SNB-19
SF-539 = tested on: SF-539
IGROV-1 = tested on: IGROV-1
NCI-H460 = tested on: NCI-H460

Compound	GI50 (SK-OV-3)	GI50 (SN12C)	GI50 (HL-60)	GI50 (RPMI-8226)	GI50 (OVCAR-8)	GI50 (HCC 2998)	GI50 (A498)	GI50 (UO-31)	GI50 (RXF 393)	GI50 (HCT-116)	GI50 (HOP-92)	GI50 (K562)	GI50 (DU-145)	GI50 (MOLT-4)	GI50 (MCF7)	GI50 (SW-620)	GI50 (SNB-19)	GI50 (SF-539)	GI50 (IGROV-1)	GI50 (NCI-H460)
S=c1sc2ccccc2n1CN1CCN(Cc2ccccc2)CC1	> 100 µM (inactive)	> 100 µM (inactive)	> 100 µM (inactive)	> 100 µM (inactive)	> 100 µM (inactive)	> 100 µM (inactive)	> 100 µM (inactive)	> 100 µM (inactive)	> 100 µM (inactive)	> 100 µM (inactive)	> 100 µM (inactive)	> 100 µM (inactive)	> 100 µM (inactive)	> 100 µM (inactive)	> 100 µM (inactive)	> 100 µM (inactive)	> 100 µM (inactive)	> 100 µM (inactive)	> 100 µM (inactive)	> 100 µM (inactive)
N=C(N)NCCCS(=O)(=O)Nc1ccc(Nc2c3ccccc3nc3cc([N+](=O)[O-])ccc23)cc1	17.3 µM (inactive)	4.83 µM (inactive)	22.3 µM (inactive)	3.8 µM (inactive)	20.6 µM (inactive)	14.7 µM (inactive)	17.5 µM (inactive)	> 68.4 µM (inactive)	20.8 µM (inactive)	16.5 µM (inactive)	4.9 µM (inactive)	22.3 µM (inactive)	9.33 µM (inactive)	2.33 µM (inactive)	2.53 µM (inactive)	14.9 µM (inactive)	2.9 µM (inactive)	20.3 µM (inactive)	18.4 µM (inactive)	0.265 µM (active)
N#C/N=C(/NCc1ccccc1)N(Cc1ccccc1)Cc1ccccc1	> 10 µM (inactive)	25.2 µM (inactive)	16.8 µM (inactive)	22.9 µM (inactive)	20.2 µM (inactive)	32.9 µM (inactive)	> 10 µM (inactive)	16.4 µM (inactive)	27.7 µM (inactive)	17.8 µM (inactive)	24.6 µM (inactive)	26.3 µM (inactive)	63 µM (inactive)	14.1 µM (inactive)	36.1 µM (inactive)	64 µM (inactive)	> 89.1 µM (inactive)	23.7 µM (inactive)	17.4 µM (inactive)	19.6 µM (inactive)
CCN(CC)C(=S)SC(C(=O)Nc1nnc(-c2ccc(Cl)cc2)o1)c1ccccc1 (stereo not given)	13 µM (inactive)	13.3 µM (inactive)	4.85 µM (inactive)	4.72 µM (inactive)	5.79 µM (inactive)	3.41 µM (inactive)	11.9 µM (inactive)	17 µM (inactive)	14.9 µM (inactive)	3.46 µM (inactive)	16.6 µM (inactive)	12.8 µM (inactive)	20.1 µM (inactive)	3.48 µM (inactive)	7.26 µM (inactive)	5.41 µM (inactive)	34.6 µM (inactive)	14.8 µM (inactive)	2.7 µM (inactive)	10.4 µM (inactive)
